Results reported in the CheMixHub viscosity set.
± gives the uncertainty stated by the source.

Experiment: xn = mol fraction of the nth substance listed

CCCC#N + CC(C)(C)O
viscosity [mPa·s]
Details | 298.15 K | 303.15 K | 308.15 K | 313.15 K | 318.15 K
101 kPa, x2 = 0.0941 | 0.5487 ± 0.0056 | 0.5396 ± 0.0055 | 0.519 ± 0.0053 | – | –
101 kPa, x2 = 0.1845 | 0.5808 ± 0.0058 | 0.5686 ± 0.0057 | 0.5478 ± 0.0055 | – | –
101 kPa, x2 = 0.2837 | 0.6365 ± 0.0063 | 0.6123 ± 0.0061 | 0.5852 ± 0.0059 | – | –
101 kPa, x2 = 0.3758 | 0.7071 ± 0.0069 | 0.6764 ± 0.0066 | 0.6373 ± 0.0063 | – | –
101 kPa, x2 = 0.4766 | 0.8042 ± 0.0078 | 0.7523 ± 0.0073 | 0.6952 ± 0.0068 | – | –
101 kPa, x2 = 0.5782 | 0.9457 ± 0.009 | 0.8545 ± 0.0082 | 0.7793 ± 0.0075 | – | –
101 kPa, x2 = 0.6804 | 1.211 ± 0.011 | 1.071 ± 0.01 | 0.9743 ± 0.0092 | – | –
101 kPa, x2 = 0.7836 | 1.61 ± 0.015 | 1.417 ± 0.013 | 1.268 ± 0.012 | – | –
101 kPa, x2 = 0.8906 | 2.345 ± 0.021 | 2.01 ± 0.018 | 1.734 ± 0.016 | – | –
101.33 kPa, x2 = 0.0953 | 0.575 ± 0.004 | 0.54 ± 0.004 | 0.51 ± 0.004 | 0.481 ± 0.004 | 0.456 ± 0.004
101.33 kPa, x2 = 0.1938 | 0.613 ± 0.004 | 0.573 ± 0.004 | 0.537 ± 0.004 | 0.505 ± 0.004 | 0.476 ± 0.004
101.33 kPa, x2 = 0.2941 | 0.669 ± 0.005 | 0.622 ± 0.004 | 0.579 ± 0.004 | 0.54 ± 0.004 | 0.506 ± 0.004
101.33 kPa, x2 = 0.3922 | 0.749 ± 0.006 | 0.689 ± 0.005 | 0.636 ± 0.004 | 0.589 ± 0.004 | 0.546 ± 0.004
101.33 kPa, x2 = 0.4949 | 0.867 ± 0.007 | 0.788 ± 0.007 | 0.719 ± 0.005 | 0.66 ± 0.005 | 0.607 ± 0.004
101.33 kPa, x2 = 0.591 | 1.03 ± 0.008 | 0.923 ± 0.008 | 0.834 ± 0.007 | 0.753 ± 0.006 | 0.685 ± 0.005
101.33 kPa, x2 = 0.695 | 1.297 ± 0.01 | 1.138 ± 0.009 | 1.006 ± 0.008 | 0.895 ± 0.007 | 0.802 ± 0.007
101.33 kPa, x2 = 0.7957 | 1.727 ± 0.013 | 1.476 ± 0.012 | 1.272 ± 0.01 | 1.107 ± 0.009 | 0.974 ± 0.008
101.33 kPa, x2 = 0.9002 | 2.573 ± 0.019 | 2.103 ± 0.016 | 1.746 ± 0.013 | 1.464 ± 0.011 | 1.245 ± 0.01

CCCC#N + CC(C)CO
viscosity [mPa·s], 101.33 kPa
Details | x2 = 0.0997 | x2 = 0.2 | x2 = 0.2986 | x2 = 0.3982 | x2 = 0.4962 | x2 = 0.5918 | x2 = 0.7022 | x2 = 0.8004 | x2 = 0.8991
298.15 K | 0.582 ± 0.004 | 0.626 ± 0.004 | 0.69 ± 0.005 | 0.778 ± 0.007 | 0.895 ± 0.007 | 1.051 ± 0.009 | 1.315 ± 0.01 | 1.672 ± 0.013 | 2.273 ± 0.017
308.15 K | 0.516 ± 0.004 | 0.551 ± 0.004 | 0.6 ± 0.004 | 0.667 ± 0.005 | 0.756 ± 0.006 | 0.874 ± 0.007 | 1.069 ± 0.009 | 1.323 ± 0.01 | 1.742 ± 0.013
318.15 K | 0.462 ± 0.004 | 0.489 ± 0.004 | 0.528 ± 0.004 | 0.58 ± 0.004 | 0.648 ± 0.005 | 0.737 ± 0.005 | 0.881 ± 0.007 | 1.066 ± 0.009 | 1.363 ± 0.011

Brc1ccccc1 + COCCO
303.15 K, 101.33 kPa
Details | viscosity [mPa·s]
x2 = 0.1188 | 0.997 ± 0.013
x2 = 0.219 | 1.024 ± 0.013
x2 = 0.3173 | 1.06 ± 0.013
x2 = 0.4336 | 1.114 ± 0.014
x2 = 0.4974 | 1.147 ± 0.014
x2 = 0.5621 | 1.179 ± 0.015
x2 = 0.7198 | 1.255 ± 0.016
x2 = 0.8018 | 1.296 ± 0.016
x2 = 0.9254 | 1.352 ± 0.017
